In PubChem BioAssay AID248 (DTP/NCI, 2004):
“And” between values parts separate entries of the source, which are not always exact repeats. Equal entries are not always repeated. Inconclusive results and toxic doses are left out.

Test system: L1210 leukemia ip in BDF1 mice, survival T/C
Experiment: NCI In Vivo Anticancer Drug Screen. Data for tumor model L1210 Leukemia (intraperitoneal) in B6D2F1 (BDF1) mice
Details: endpoint: mean survival time, higher = longer survival
Method in brief: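 Antitumor effect is assessed in tumor-bearing animals. Survival in the compound arm is compared with a vehicle-dosed control arm and expressed as their quotient.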

COC(C(=O)C(O)C(C)O)C1Cc2cc3cc(OC4CC(OC(C)=O)C(OC5CC(O)C(OC)C(C)O5)C(C)O4)cc(O)c3c(O)c2C(=O)C1OC1CC(OC2CC(OC3CC(C)(O)C(OC(=O)C(C)C)C(C)O3)C(O)C(C)O2)C(O)C(C)O1 (stereo not drawn)
T/C (dose: 0.09 mg/kg/injection, schedule: Q01DX017 (ip), vehicle: carboxymethylcellulose (CMC)): 97 % of control | T/C (dose: 0.18 mg/kg/injection, schedule: Q01DX017 (ip), vehicle: carboxymethylcellulose (CMC)): 109 % of control | T/C (dose: 0.18 mg/kg/injection, schedule: Q## X005 (ip), vehicle: carboxymethylcellulose (CMC)): 98 % of control | T/C (dose: 0.2 mg/kg/injection, schedule: Q01DX015 (ip), vehicle: carboxymethylcellulose (CMC)): 102 % of control | T/C (dose: 0.24 mg/kg/injection, schedule: Q## X024 (ip), vehicle: carboxymethylcellulose (CMC)): 92 % of control | T/C (dose: 0.25 mg/kg/injection, schedule: Q01DX009 (ip), vehicle: other): 103 % of control | T/C (dose: 0.25 mg/kg/injection, schedule: Q## X003 (ip), vehicle: carboxymethylcellulose (CMC)): 94 % of control | T/C (dose: 0.25 mg/kg/injection, schedule: Q#A X034 (ip), vehicle: carboxymethylcellulose (CMC)): 119 % of control | T/C (dose: 0.37 mg/kg/injection, schedule: Q01DX001 (ip), vehicle: carboxymethylcellulose (CMC)): 101 % of control | T/C (dose: 0.37 mg/kg/injection, schedule: Q01DX010 (ip), vehicle: saline): 116 % of control | T/C (dose: 0.37 mg/kg/injection, schedule: Q02DX005 (ip), vehicle: saline): 101 % of control | T/C (dose: 0.37 mg/kg/injection, schedule: Q02DX009 (ip), vehicle: carboxymethylcellulose (CMC)): 121 % of control | T/C (dose: 0.37 mg/kg/injection, schedule: Q## X003 (ip), vehicle: saline): 98 % of control | T/C (dose: 0.37 mg/kg/injection, schedule: Q## X005 (ip), vehicle: carboxymethylcellulose (CMC)): 107 % of control | T/C (dose: 0.4 mg/kg/injection, schedule: Q01DX015 (ip), vehicle: carboxymethylcellulose (CMC)): 120 % of control | T/C (dose: 0.48 mg/kg/injection, schedule: Q## X024 (ip), vehicle: carboxymethylcellulose (CMC)): 89 % of control | T/C (dose: 0.5 mg/kg/injection, schedule: Q01DX001 (ip), vehicle: saline): 103 % of control | T/C (dose: 0.5 mg/kg/injection, schedule: Q01DX005 (ip), vehicle: carboxymethylcellulose (CMC)): 106 % of control | T/C (dose: 0.5 mg/kg/injection, schedule: Q01DX006 (iv), vehicle: carboxymethylcellulose (CMC)): 104 % of control | T/C (dose: 0.5 mg/kg/injection, schedule: Q01DX009 (ip), vehicle: carboxymethylcellulose (CMC)): 113 % of control | T/C (dose: 0.5 mg/kg/injection, schedule: Q01DX009 (ip), vehicle: other): 122 % of control | T/C (dose: 0.5 mg/kg/injection, schedule: Q01DX015 (im), vehicle: carboxymethylcellulose (CMC)): 97 % of control | T/C (dose: 0.5 mg/kg/injection, schedule: Q01DX015 (sc), vehicle: carboxymethylcellulose (CMC)): 95 % of control | T/C (dose: 0.5 mg/kg/injection, schedule: Q01DX Z (ip), vehicle: saline): 123 % of control | T/C (dose: 0.5 mg/kg/injection, schedule: Q## X003 (ip), vehicle: carboxymethylcellulose (CMC)): 93 % of control | T/C (dose: 0.75 mg/kg/injection, schedule: Q01DX001 (ip), vehicle: carboxymethylcellulose (CMC)): 106 % of control | T/C (dose: 0.75 mg/kg/injection, schedule: Q02DX005 (ip), vehicle: saline): 116 % of control | T/C (dose: 0.75 mg/kg/injection, schedule: Q## X003 (ip), vehicle: saline): 105 % of control | T/C (dose: 0.75 mg/kg/injection, schedule: Q## X005 (ip), vehicle: carboxymethylcellulose (CMC)): 117 % of control | T/C (dose: 1.0 mg/kg/injection, schedule: Q01DX001 (ip), vehicle: other): 94 % of control | T/C (dose: 1.0 mg/kg/injection, schedule: Q01DX001 (ip), vehicle: saline): 114 % of control and 115 % of control | T/C (dose: 1.0 mg/kg/injection, schedule: Q01DX005 (ip), vehicle: carboxymethylcellulose (CMC)): 110 % of control | T/C (dose: 1.0 mg/kg/injection, schedule: Q01DX006 (iv), vehicle: carboxymethylcellulose (CMC)): 96 % of control | T/C (dose: 1.0 mg/kg/injection, schedule: Q01DX009 (ip), vehicle: carboxymethylcellulose (CMC)): 116 % of control | T/C (dose: 1.0 mg/kg/injection, schedule: Q01DX009 (ip), vehicle: other): 114 % of control | T/C (dose: 1.0 mg/kg/injection, schedule: Q01DX015 (im), vehicle: carboxymethylcellulose (CMC)): 101 % of control | T/C (dose: 1.0 mg/kg/injection, schedule: Q01DX015 (sc), vehicle: carboxymethylcellulose (CMC)): 105 % of control | T/C (dose: 1.0 mg/kg/injection, schedule: Q01DX017 (ip), vehicle: carboxymethylcellulose (CMC)): 163 % of control | T/C (dose: 1.0 mg/kg/injection, schedule: Q01DX Z (ip), vehicle: saline): 115 % of control | T/C (dose: 1.0 mg/kg/injection, schedule: Q02DX009 (ip), vehicle: carboxymethylcellulose (CMC)): 154 % of control | T/C (dose: 1.0 mg/kg/injection, schedule: Q## X002 (ip), vehicle: carboxymethylcellulose (CMC)): 88 % of control | T/C (dose: 1.0 mg/kg/injection, schedule: Q## X003 (ip), vehicle: carboxymethylcellulose (CMC)): 95 % of control | T/C (dose: 1.0 mg/kg/injection, schedule: Q## X008 (ip), vehicle: carboxymethylcellulose (CMC)): 88 % of control | T/C (dose: 1.0 mg/kg/injection, schedule: Q## X024 (ip), vehicle: carboxymethylcellulose (CMC)): 93 % of control | T/C (dose: 1.0 mg/kg/injection, schedule: Q#A X034 (ip), vehicle: carboxymethylcellulose (CMC)): 170 % of control | T/C (dose: 1.5 mg/kg/injection, schedule: Q01DX001 (ip), vehicle: carboxymethylcellulose (CMC)): 117 % of control | T/C (dose: 1.5 mg/kg/injection, schedule: Q01DX001 (ip), vehicle: saline): 114 % of control | T/C (dose: 1.5 mg/kg/injection, schedule: Q01DX013 (ip), vehicle: saline): 124 % of control | T/C (dose: 1.5 mg/kg/injection, schedule: Q02DX005 (ip), vehicle: saline): 122 % of control | T/C (dose: 1.5 mg/kg/injection, schedule: Q02DX009 (ip), vehicle: carboxymethylcellulose (CMC)): 162 % of control | T/C (dose: 1.6 mg/kg/injection, schedule: Q01DX013 (ip), vehicle: saline): 163 % of control | T/C (dose: 2.0 mg/kg/injection, schedule: Q01DX001 (ip), vehicle: other): 108 % of control | T/C (dose: 2.0 mg/kg/injection, schedule: Q01DX001 (ip), vehicle: saline): 116 % of control and 123 % of control | T/C (dose: 2.0 mg/kg/injection, schedule: Q01DX005 (ip), vehicle: carboxymethylcellulose (CMC)): 123 % of control | T/C (dose: 2.0 mg/kg/injection, schedule: Q01DX006 (iv), vehicle: carboxymethylcellulose (CMC)): 121 % of control | T/C (dose: 2.0 mg/kg/injection, schedule: Q01DX009 (ip), vehicle: other): 177 % of control | T/C (dose: 2.0 mg/kg/injection, schedule: Q01DX009 (ip), vehicle: saline): 166 % of control | T/C (dose: 2.0 mg/kg/injection, schedule: Q01DX015 (im), vehicle: carboxymethylcellulose (CMC)): 121 % of control | T/C (dose: 2.0 mg/kg/injection, schedule: Q01DX015 (ip), vehicle: carboxymethylcellulose (CMC)): 195 % of control | T/C (dose: 2.0 mg/kg/injection, schedule: Q01DX015 (oral), vehicle: carboxymethylcellulose (CMC)): 101 % of control | T/C (dose: 2.0 mg/kg/injection, schedule: Q01DX015 (sc), vehicle: carboxymethylcellulose (CMC)): 114 % of control | T/C (dose: 2.0 mg/kg/injection, schedule: Q01DX017 (ip), vehicle: carboxymethylcellulose (CMC)): 184 % of control | T/C (dose: 2.0 mg/kg/injection, schedule: Q01DX Z (ip), vehicle: saline): 106 % of control | T/C (dose: 2.0 mg/kg/injection, schedule: Q02DX009 (ip), vehicle: carboxymethylcellulose (CMC)): 192 % of control | T/C (dose: 2.0 mg/kg/injection, schedule: Q## X002 (ip), vehicle: carboxymethylcellulose (CMC)): 100 % of control | T/C (dose: 2.0 mg/kg/injection, schedule: Q## X003 (ip), vehicle: carboxymethylcellulose (CMC)): 113 % of control | T/C (dose: 2.0 mg/kg/injection, schedule: Q## X005 (ip), vehicle: carboxymethylcellulose (CMC)): 150 % of control | T/C (dose: 2.0 mg/kg/injection, schedule: Q## X008 (ip), vehicle: carboxymethylcellulose (CMC)): 97 % of control | T/C (dose: 2.0 mg/kg/injection, schedule: Q## X016 (ip), vehicle: carboxymethylcellulose (CMC)): 97 % of control | T/C (dose: 2.0 mg/kg/injection, schedule: Q## X024 (ip), vehicle: carboxymethylcellulose (CMC)): 103 % of control | T/C (dose: 3.0 mg/kg/injection, schedule: Q01DX001 (ip), vehicle: carboxymethylcellulose (CMC)): 115 % of control | T/C (dose: 3.0 mg/kg/injection, schedule: Q01DX001 (ip), vehicle: saline): 118 % of control | T/C (dose: 3.0 mg/kg/injection, schedule: Q02DX009 (ip), vehicle: carboxymethylcellulose (CMC)): 151 % of control | T/C (dose: 3.0 mg/kg/injection, schedule: Q## X005 (ip), vehicle: carboxymethylcellulose (CMC)): 152 % of control | T/C (dose: 3.2 mg/kg/injection, schedule: Q01DX015 (ip), vehicle: carboxymethylcellulose (CMC)): 163 % of control | T/C (dose: 4.0 mg/kg/injection, schedule: Q01DX001 (ip), vehicle: other): 97 % of control | T/C (dose: 4.0 mg/kg/injection, schedule: Q01DX001 (ip), vehicle: saline): 104 % of control | T/C (dose: 4.0 mg/kg/injection, schedule: Q01DX006 (iv), vehicle: carboxymethylcellulose (CMC)): 122 % of control | T/C (dose: 4.0 mg/kg/injection, schedule: Q01DX009 (ip), vehicle: carboxymethylcellulose (CMC)): 114 % of control | T/C (dose: 4.0 mg/kg/injection, schedule: Q01DX009 (ip), vehicle: other): 101 % of control | T/C (dose: 4.0 mg/kg/injection, schedule: Q01DX015 (im), vehicle: carboxymethylcellulose (CMC)): 94 % of control | T/C (dose: 4.0 mg/kg/injection, schedule: Q01DX015 (oral), vehicle: carboxymethylcellulose (CMC)): 104 % of control | T/C (dose: 4.0 mg/kg/injection, schedule: Q01DX015 (sc), vehicle: carboxymethylcellulose (CMC)): 115 % of control | T/C (dose: 4.0 mg/kg/injection, schedule: Q02DX009 (ip), vehicle: carboxymethylcellulose (CMC)): 259 % of control | T/C (dose: 4.0 mg/kg/injection, schedule: Q## X002 (ip), vehicle: carboxymethylcellulose (CMC)): 106 % of control | T/C (dose: 4.0 mg/kg/injection, schedule: Q## X005 (ip), vehicle: carboxymethylcellulose (CMC)): 170 % of control | T/C (dose: 4.0 mg/kg/injection, schedule: Q## X008 (ip), vehicle: carboxymethylcellulose (CMC)): 104 % of control | T/C (dose: 4.0 mg/kg/injection, schedule: Q## X016 (ip), vehicle: carboxymethylcellulose (CMC)): 97 % of control | T/C (dose: 6.0 mg/kg/injection, schedule: Q02DX009 (ip), vehicle: carboxymethylcellulose (CMC)): 113 % of control | T/C (dose: 8.0 mg/kg/injection, schedule: Q01DX001 (ip), vehicle: carboxymethylcellulose (CMC)): 98 % of control | T/C (dose: 8.0 mg/kg/injection, schedule: Q01DX001 (ip), vehicle: other): 101 % of control | T/C (dose: 8.0 mg/kg/injection, schedule: Q01DX015 (oral), vehicle: carboxymethylcellulose (CMC)): 97 % of control | T/C (dose: 8.0 mg/kg/injection, schedule: Q## X002 (ip), vehicle: carboxymethylcellulose (CMC)): 116 % of control | T/C (dose: 16.0 mg/kg/injection, schedule: Q01DX015 (oral), vehicle: carboxymethylcellulose (CMC)): 101 % of control | T/C (dose: 32.0 mg/kg/injection, schedule: Q01DX015 (oral), vehicle: carboxymethylcellulose (CMC)): 109 % of control | T/C (dose: 62.5 micrograms/kg/injection, schedule: Q01DX Z (ip), vehicle: saline): 108 % of control | T/C (dose: 125.0 micrograms/kg/injection, schedule: Q01DX Z (ip), vehicle: saline): 109 % of control | T/C (dose: 250.0 micrograms/kg/injection, schedule: Q01DX Z (ip), vehicle: saline): 114 % of control
